Experimental findings from patent US12433835B2, “Cosmetic composition and treatment for treating skin sagging” (Sederma, priority 2020, dated 2025) are described below.

The subject of the experiment is Fibroblasts. Put plainly: Contraction of collagen lattice by MGO-stressed fibroblasts. In kind it is cell-based. The conditions noted are these: MGO contact 2 days, with or without extract at 0.5%; control without MGO = 100%; n=3. The source says:
The contraction function of fibroblasts is important for ensuring a good elasticity to the skin. The application on fibroblasts of the glycating substance (MGO: methylglyoxal) allows to mimic in accelerate the loss of contractility of fibroblasts occurring during aging. Fibroblasts were brought into contact with the MGO for 2 days, in nontoxic quantity, with or without the extract according to the invention. After this contact, the cells were included in a collagen gel to form a dermis equivalent called lattice. Fibroblasts anchor themselves to the collagens and begin to contract the gel like they do in the skin. This contraction was followed after 16 h and measured using an ImageQuant LAS4000 imager by following the modification on the gel surface.

Take `CC(=O)C=O` [MGO, methylglyoxal]: the “Gel contraction at 16 h (%)” value was 59.9%.
